This is an account of results in patent US6693165B2 (Merck & Co., Inc., priority 2000, dated 2004).

Numbered stars: 1 amine (or outer) side, 2 acyl side, 3 side chain; on linkers, the order of the positions; unused ones are H or OH. Bridge positions count the residues as written; N and C are the ends. Square brackets hold non-standard residues; d marks the D form. Peptide text beside a SMILES is read from it. dPhe(4-tBu) = CC(C)(C)c1ccc(C[C@@H](N)C(=O)O)cc1; dPhe(4-Cl) = N[C@H](Cc1ccc(Cl)cc1)C(=O)O; dPhe(4-F) = N[C@H](Cc1ccc(F)cc1)C(=O)O; d2Nal = N[C@H](Cc1ccc2ccccc2c1)C(=O)O; Maleoyl = O=C(/C=C\C(=O)[*:2])[*:1]; dBta = N[C@H](Cc1csc2ccccc12)C(=O)O; Suc = O=C(CCC(=O)[*:2])[*:1]; Dap = NC[C@H](N)C(=O)O

One assay deals with T1, human MC4 receptor (Homo sapiens, UniProt P32245).
T1 construct: expressed in transfected cells; host or cells: Chinese hamster ovary (CHO) cells
T1 sequence (P32245 whole entry): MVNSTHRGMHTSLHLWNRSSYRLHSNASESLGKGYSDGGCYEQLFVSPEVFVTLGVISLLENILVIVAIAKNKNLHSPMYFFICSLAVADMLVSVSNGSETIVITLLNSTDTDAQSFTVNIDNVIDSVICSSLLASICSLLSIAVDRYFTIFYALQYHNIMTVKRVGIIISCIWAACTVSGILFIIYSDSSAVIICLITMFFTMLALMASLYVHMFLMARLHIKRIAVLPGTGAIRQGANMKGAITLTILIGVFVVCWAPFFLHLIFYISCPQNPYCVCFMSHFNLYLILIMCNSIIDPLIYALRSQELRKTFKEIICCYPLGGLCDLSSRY
The assay can be described thus: Competitive binding assay, human MC4 receptor. To be noted: for IC50: CHO cell membranes expressing human MC4 receptor, 200 pM [125I]-NDP-α-MSH, three independent experiments, read-out: hMC-4R (binding data); for 3:4: selectivity ratio of hMC-3R to hMC-4R binding values; for 5:4: selectivity ratio of hMC-5R to hMC-4R binding values. The method, then:
(§1) The peptides of the present invention were evaluated for antagonist activity in receptor binding assay. Crude membrane preparations were obtained from Chinese hamster ovary cells expressing human MC3, MC4, and MC5 receptors. Cells were rinsed with phosphate-buffered saline (PBS) lacking CaCl2 or MgCl2 (Life Technologies, Gaithersburg, Md., USA), and then detached with enzyme-free dissociation media (Specialty Media, Lavellette, N.J., USA). Cells were pelleted at 2800×g for 10 min and resuspended in membrane buffer (20 mM Tris, pH 7.2, 5 mM ethylenediaminetetraacetic acid) with 5 μg/ml leupeptin, 5 μg/ml aprotinin, 40 μg/ml bacitracin, and 25 μg/ml pefabloc (Boehringer Mannheim). The cells were […] with 10 strokes by using a motor-driven Teflon-coated pestle in a glass homogenizer at low speed. The resulting cell suspension was centrifuged at 4100×g, 4° C., for 20 min. The pellet was resuspended in fresh membrane buffer with protease inhibitors, aliquoted, snap-frozen in liquid nitrogen, and stored at −80° C. The resulting crude membranes were titrated to determine the optimal level necessary for performing binding studies.
(§2) Binding reactions (total volume=250 μl) contained MBB (50 mM Tris, pH 7.2, 2 mM CaCl2, 1 mM MgCl2), 0.1% bovine serum albumin, crude membranes prepared from cells expressing human MC3, MC4, or MC5 receptor, 200 pM of [125I]-NDP-α-MSH (Amersham, Arlington Heighs, Ill., USA), and increasing concentrations of unlabeled test compounds dissolved in dimethylsulfoxide (final concentration=2%). Reactions were incubated for 1 h without shaking and then filtered through 96-well filter plates (Packard), presoaked in 1% polyethyleneimine. Filters were washed 3 times with TNE buffer (50 mM Tris, pH 7.4, 5 mM ethylene-diaminetetraacetic acid, 150 mM NaCl), dried and counted by using Microscint-20 in a Topcount scintillation counter (Packard).

Another assay deals with T2, human MC5 receptor (Homo sapiens, UniProt P33032).
T2 construct: expressed in transfected cells; host or cells: Chinese hamster ovary (CHO) cells
T2 sequence (P33032 whole entry): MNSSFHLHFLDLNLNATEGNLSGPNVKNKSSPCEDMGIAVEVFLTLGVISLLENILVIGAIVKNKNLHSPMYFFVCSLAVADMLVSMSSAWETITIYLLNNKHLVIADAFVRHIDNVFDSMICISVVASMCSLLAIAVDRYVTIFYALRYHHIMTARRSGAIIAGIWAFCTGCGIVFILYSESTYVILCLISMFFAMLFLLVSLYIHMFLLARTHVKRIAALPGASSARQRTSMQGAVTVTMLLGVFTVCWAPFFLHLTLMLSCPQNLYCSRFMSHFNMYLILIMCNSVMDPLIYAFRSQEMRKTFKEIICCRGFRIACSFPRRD
The assay can be described thus: Competitive binding assay, human MC5 receptor. To be noted: CHO cell membranes expressing human MC5 receptor; 200 pM [125I]-NDP-α-MSH; three independent experiments; read-out: hMC-5R (binding data). The method, then: as §1, §2

For the next assay, the target named is human MC3 receptor (Homo sapiens, UniProt P41968). The experiment in a line: Competitive binding assay, human MC3 receptor. To be noted: hMC-3R (binding data), CHO cell membranes expressing human MC3 receptor; 200 pM [125I]-NDP-α-MSH; three independent experiments.
Chain of human MC3 receptor (P41968 whole entry): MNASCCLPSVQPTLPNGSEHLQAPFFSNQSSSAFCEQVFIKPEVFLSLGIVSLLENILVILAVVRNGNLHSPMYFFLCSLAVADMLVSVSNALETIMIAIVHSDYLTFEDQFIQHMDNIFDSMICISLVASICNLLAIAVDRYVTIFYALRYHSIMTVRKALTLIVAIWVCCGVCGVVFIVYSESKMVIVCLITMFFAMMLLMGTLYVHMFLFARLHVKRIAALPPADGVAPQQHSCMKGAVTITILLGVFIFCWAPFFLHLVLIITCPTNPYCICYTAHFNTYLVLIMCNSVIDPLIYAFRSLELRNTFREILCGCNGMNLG
For assay [1] the following is noted: rats; cited from earlier work.

Turning to `N=C(N)NCCC[C@@H]1NC(=O)[C@@H](Cc2ccc3ccccc3c2)NC(=O)[C@H](Cc2c[nH]cn2)NC(=O)[C@@H](N)CC(=O)NCCCC[C@@H](C(N)=O)NC(=O)[C@H](Cc2c[nH]c3ccccc23)NC1=O` [Example 3], on human MC4 receptor, the IC50 amounted to 1.7 ± 0.8 nM, the “3:4” value amounted to 9 and the “5:4” value is reported as 14. Besides, on human MC5 receptor, the IC50 worked out at 24 ± 6.7 nM. On human MC3 receptor, the IC50 was 16 ± 5.2 nM.
SHU9119: in assay [1], the body weight entry is given as “increased” and the food intake entry is reported as “increased”.
As to `NCCCC[C@@H]1NC(=O)[C@@H](Cc2ccc3ccccc3c2)NC(=O)CCC(=O)NCCCC[C@@H](C(N)=O)NC(=O)[C@H](Cc2c[nH]c3ccccc23)NC1=O` [Example 20] ([d2Nal]KWK-NH2; linker N-4 via Suc), on human MC4 receptor, the IC50 is 44 ± 7 nM, the “3:4” value came to 84 and the “5:4” value was 48. Further, the IC50 at human MC5 receptor was 2100 ± 500 nM. This molecule gave an IC50 on human MC3 receptor of 3700 ± 1200 nM.
In the case of `N=C(N)NCCC[C@@H]1NC(=O)[C@@H](Cc2ccc3ccccc3c2)NC(=O)/C=C\C(=O)NCCCC[C@@H](C(N)=O)NC(=O)[C@H](Cc2c[nH]c3ccccc23)NC1=O` [Example 12] ([d2Nal]RWK-NH2; linker N-4 via Maleoyl), on human MC4 receptor, the “3:4” value is given as 300 and the “5:4” value was 270.
With `N=C(N)NCCC[C@@H]1NC(=O)[C@@H](Cc2csc3ccccc23)NC(=O)CCC(=O)NCCCC[C@@H](C(N)=O)NC(=O)[C@H](Cc2c[nH]c3ccccc23)NC1=O` [Example 16] ([dBta]RWK-NH2; linker N-4 via Suc), the IC50 amounted to 69 ± 12 nM at human MC4 receptor, 3000 ± 1000 nM at human MC5 receptor and 5600 ± 3900 nM at human MC3 receptor. Further, the “3:4” value at human MC4 receptor was found to be 81. Moreover, the “5:4” value on human MC4 receptor came to 44.
As to MTII, in assay [1], the food intake entry is recorded as “reduced”.
For the molecule `N=C(N)NCCC[C@@H]1NC(=O)[C@@H](Cc2ccc3ccccc3c2)NC(=O)C2CC2C(=O)NCCCC[C@@H](C(N)=O)NC(=O)[C@H](Cc2c[nH]c3ccccc23)NC1=O` (single isomer, unassigned) [11 a], at human MC4 receptor, the IC50 was 0.6 ± 0.1 nM, the “3:4” value was determined as 216 and the “5:4” value stood at 316. Besides, the IC50 at human MC5 receptor turned out to be 190 ± 37 nM. On human MC3 receptor, the IC50 is 130 ± 16 nM.
For `N=C(N)NCCC[C@@H]1NC(=O)[C@@H](Cc2ccc3ccccc3c2)NC(=O)[C@H](CCCCN)NC(=O)CCC(=O)NCCCC[C@@H](C(N)=O)NC(=O)[C@H](Cc2c[nH]c3ccccc23)NC1=O` [Example 24] (K[d2Nal]RWK-NH2; linker N-5 via Suc), in that order: 40 ± 5 nM, 75, 250, 10000 ± 8700 nM and 3000 ± 1100 nM.
Take `N=C(N)NCCC[C@@H]1NC(=O)[C@@H](Cc2ccc(Cl)cc2)NC(=O)CCC(=O)NCCCC[C@@H](C(N)=O)NC(=O)[C@H](Cc2c[nH]c3ccccc23)NC1=O` [Example 17] ([dPhe(4-Cl)]RWK-NH2; linker N-4 via Suc): the IC50 came out at 3.5 ± 0.3 nM on human MC4 receptor, 440 ± 240 nM at human MC5 receptor and 570 ± 290 nM on human MC3 receptor. In addition, on human MC4 receptor, the “3:4” value was 163. The “5:4” value at human MC4 receptor worked out at 126.
For `N=C(N)NCCC[C@@H]1NC(=O)[C@@H](Cc2ccc3ccccc3c2)NC(=O)[C@H](Cc2c[nH]cn2)NC(=O)CCC(=O)NC[C@@H](C(N)=O)NC(=O)[C@H](Cc2c[nH]c3ccccc23)NC1=O` [Example 8] (H[d2Nal]RW[Dap]-NH2; linker N-5 via Suc), in that order: 0.2 ± 0.03 nM, 71 ± 8.4 nM, 19 ± 1.5 nM, 95 and 355.
As for HS024, in assay [1], the body weight entry is reported as “increase” and the food intake entry is “increase”.
With `CC(=O)N[C@H]1CC(=O)NCCCC[C@@H](C(N)=O)NC(=O)[C@H](Cc2c[nH]c3ccccc23)NC(=O)[C@H](CCCNC(=N)N)NC(=O)[C@@H](Cc2ccc3ccccc3c2)NC1=O` [Example 6] (Ac-D[d2Nal]RWK-NH2; lactam 1-5), on human MC4 receptor, the IC50 worked out at 4.7 ± 0.6 nM, the “3:4” value is recorded as 46 and the “5:4” value is on record as 234. In addition, on human MC5 receptor, the IC50 amounted to 1100 ± 150 nM. The IC50 at human MC3 receptor was 220 ± 6.7 nM.
As to `N=C(N)NCCC[C@@H]1NC(=O)[C@@H](Cc2ccc3ccccc3c2)NC(=O)C2CC2C(=O)NCCCC[C@@H](C(N)=O)NC(=O)[C@H](Cc2c[nH]c3ccccc23)NC1=O` (single isomer, unassigned) [11 b], at human MC4 receptor, the IC50 worked out at 1.6 ± 0.2 nM, the “3:4” value is given as 168 and the “5:4” value is 337. Also, on human MC5 receptor, the IC50 is 540 ± 230 nM. Also, the IC50 on human MC3 receptor was found to be 270 ± 24 nM.
The like results for `N=C(N)NCCC[C@@H]1NC(=O)[C@@H](Cc2ccc(F)cc2)NC(=O)CCC(=O)NCCCC[C@@H](C(N)=O)NC(=O)[C@H](Cc2c[nH]c3ccccc23)NC1=O` [Example 19] ([dPhe(4-F)]RWK-NH2; linker N-4 via Suc) were, in that order, 70 ± 10 nM, 69, 143, 10000 ± 2000 nM and 4800 ± 1000 nM.
`CC(C)(C)c1ccc(C[C@H]2NC(=O)CCC(=O)NCCCC[C@@H](C(N)=O)NC(=O)[C@H](Cc3c[nH]c4ccccc34)NC(=O)[C@H](CCCNC(=N)N)NC2=O)cc1` [Example 14] ([dPhe(4-tBu)]RWK-NH2; linker N-4 via Suc): at human MC4 receptor, the IC50 worked out at 46 ± 6 nM, the “3:4” value worked out at 37 and the “5:4” value amounted to 54. The IC50 on human MC5 receptor came to 2500 ± 1000 nM. At human MC3 receptor, this molecule registered an IC50 of 1500 ± 1100 nM.
Consider `N=C(N)NCCC[C@@H]1NC(=O)[C@@H](Cc2ccc3ccccc3c2)NC(=O)[C@H](Cc2c[nH]cn2)NC(=O)CCC(=O)NCCCC[C@@H](C(N)=O)NC(=O)[C@H](Cc2c[nH]c3ccccc23)NC1=O` [Example 7] (H[d2Nal]RWK-NH2; linker N-5 via Suc), for which, at human MC4 receptor, the IC50 stood at 1 ± 0.1 nM, the “3:4” value is 52 and the “5:4” value came out at 200. For the same molecule, at human MC5 receptor, the IC50 was determined as 200 ± 3.6 nM. The same molecule showed an IC50 at human MC3 receptor of 52 ± 7.9 nM.
